Laboratory results: BindingDB's records for doi:10.1016/0922-4106(95)90072-1 (Cocensys, 1995)

What was measured:
[1] = molecular target: Gamma-aminobutyric acid receptor subunit alpha-4 (Homo sapiens, UniProt P48169)
[2] = molecular target: Gamma-aminobutyric acid receptor subunit alpha-6 (Homo sapiens, UniProt Q16445)
Gamma-aminobutyric acid receptor subunit alpha-6, sequence (Q16445 whole entry): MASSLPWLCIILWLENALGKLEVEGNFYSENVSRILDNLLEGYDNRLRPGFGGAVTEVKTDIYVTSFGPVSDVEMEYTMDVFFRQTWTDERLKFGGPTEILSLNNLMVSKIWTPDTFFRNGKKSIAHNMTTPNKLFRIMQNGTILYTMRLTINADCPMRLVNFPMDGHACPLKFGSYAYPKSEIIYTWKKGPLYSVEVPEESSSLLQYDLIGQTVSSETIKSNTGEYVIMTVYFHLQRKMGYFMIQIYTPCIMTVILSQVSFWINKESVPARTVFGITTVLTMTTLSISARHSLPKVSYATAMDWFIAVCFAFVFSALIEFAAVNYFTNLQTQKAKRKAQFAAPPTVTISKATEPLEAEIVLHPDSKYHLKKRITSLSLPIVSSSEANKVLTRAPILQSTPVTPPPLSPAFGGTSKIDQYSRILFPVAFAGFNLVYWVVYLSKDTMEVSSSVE

Gamma-aminobutyric acid receptor subunit alpha-4, sequence (P48169 whole entry): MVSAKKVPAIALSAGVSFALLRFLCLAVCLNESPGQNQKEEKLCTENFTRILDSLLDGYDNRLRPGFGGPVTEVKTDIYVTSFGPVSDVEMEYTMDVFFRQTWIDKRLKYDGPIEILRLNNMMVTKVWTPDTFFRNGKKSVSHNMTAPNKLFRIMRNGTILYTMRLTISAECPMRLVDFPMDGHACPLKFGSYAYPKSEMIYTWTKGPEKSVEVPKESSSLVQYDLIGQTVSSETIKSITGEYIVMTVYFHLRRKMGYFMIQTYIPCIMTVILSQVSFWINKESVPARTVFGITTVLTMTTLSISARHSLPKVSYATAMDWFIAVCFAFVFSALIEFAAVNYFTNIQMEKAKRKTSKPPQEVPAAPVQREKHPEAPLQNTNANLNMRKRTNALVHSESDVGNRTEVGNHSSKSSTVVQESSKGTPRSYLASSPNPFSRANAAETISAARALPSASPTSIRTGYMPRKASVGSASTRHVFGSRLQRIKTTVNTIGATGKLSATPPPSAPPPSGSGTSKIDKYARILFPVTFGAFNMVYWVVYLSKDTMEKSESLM

Row | SMILES | Ki [1] | Ki [2]
1 | COC(=O)c1cc2c(cn1)[nH]c1ccccc12 | 310 nM | 3260 nM
2 | O=c1c2cnc3ccccc3c2[nH]n1-c1ccc(Cl)cc1 | 35.6 nM | 285 nM
3 | COc1ccc(-n2[nH]c3c(cnc4ccccc43)c2=O)cc1 [2-(4-Methoxy-phenyl)-2,5-dihydro-pyrazolo[4,3-c]quinolin-3-one (CGS 9895)] | 6.8 nM | 43.8 nM
4 | CC(C)(C)OC(=O)c1ncn2c1C1CCCN1C(=O)c1c(Br)cccc1-2 (stereo not drawn) [8-Bromo-7-oxo-3b,4,5,6-tetrahydro-7H-2,6a,11b-triaza-benzo[g]cyclopenta[e]azulene-3-carboxylic acid tert-butyl ester] | 53.5 nM | 54.9 nM
5 | CNC(=O)c1cc2c(cn1)[nH]c1ccccc12 [CAS_4375] | 300 nM | 2510 nM
6 | CCc1c(C(=O)OC)ncc2[nH]c3cc(OC)c(OC)cc3c12 [NSC_104999] | 14.1 nM | 153 nM
7 | CCOC(=O)c1ncn2c1CN(C)C(=O)c1cc(N=[N+]=[N-])ccc1-2 [RO-154513] |  | 11.7 nM
